Legend:
Type in all cases: cell-based
[1] = system: Chlorella vulgaris; assay: Effect of chelated micronutrients on growth (cell density, spectrophotometer 450 nm) of Chlorella vulgaris; settings: up to 24 days, vs control
Method: To assess the efficacy of chelated micronutrients on the growth of Chlorella vulgaris, a fresh-water green microalgae, the following experiment was conducted. Chlorella vulgaris microalgae were maintained in stock cultures as described in Example 1. The microalgae were inoculated at an initial concentration of about 10^4 cells/ml into 250 ml conical flasks containing 100 ml of an algal growth medium having a composition described in Table 3.
Three different chelated micronutrient compositions were added to the growth medium of the flasks at six different concentrations to each algal culture for final concentrations of 0 mg/ml (control), […], 10^−4 mg/ml, 10^−3 mg/ml and 10^−2 mg/ml. The metal micronutrient compositions tested were Cu-HMTBA (BIOX-C), Zn-HMTBA (BIOX-Z), and Mn-HMTBA (BIOX-M). For each concentration of a particular micronutrient composition, three duplicate flasks were tested.
The flasks containing the added compounds were cultured in a chamber in which the temperature was maintained at 21° C.-25° C. In addition, the chamber provided continuous uniform illumination with a quantum flux of 0.72 10-20 photon/m^2+/−20% in the spectral range of 400-700 nm (8000 flux). The contents of the flasks were shaken, stirred, or aerated during the experiment to facilitate the transfer of CO2 to the microalgae.
Samples from each flask were taken after 2, 7, 12, 15, 18, 21, and 24 days of growth in the flasks and analyzed in quadruplicate to determine the cell density of the microalgae. The cell density was determined using a spectrophotometer at a wavelength setting of 450 nm and using a filtered growth medium sample as a blank. The sample volume analyzed was 100 μL per well.

[2] = system: Chlorella vulgaris; assay: Effect of chelated micronutrients on protein content (Coomassie Blue G, 595 nm) of Chlorella vulgaris
Method: To assess the efficacy of chelated micronutrients on the protein content of Chlorella vulgaris, a fresh-water green microalgae, the following experiment was conducted. Chlorella vulgaris microalgae colonies were cultured in algal culture media containing added BIOX-C, BIOX-Z, and BIOX-M as described in Example 3.
Samples from each flask were taken after 2, 7, 12, 15, 21, and 30 days of growth in the flasks and analyzed in triplicate to determine the protein content of the microalgae cells. The protein contents of the microalgal colonies were determined by using a spectrophotometer to measure microalgal cells in which the proteins were marked with a dye. 0.04-mL culture samples were gently mixed with 2 ml of Coomassie Blue G dye in a 4 mL plastic cuvette. Cytoplasmic proteins were then measured by measuring the absorbance of the dyed sample at a wavelength of 595 nm using a […].

[3] = system: Chlorella vulgaris; assay: Effect of chelated micronutrients on lipid accumulation (Nile Red fluorescence) in Chlorella vulgaris
Method: To assess the efficacy of chelated micronutrients on the lipid content of Chlorella vulgaris, a fresh-water green microalgae, the following experiment was conducted. Chlorella vulgaris microalgae colonies were cultured in algal culture media containing added BIOX-C, BIOX-Z, and BIOX-M as described in Example 3. Samples from each flask were taken after 9, 30, and 39 days of growth in the flasks and analyzed in triplicate to determine the lipid content of the microalgae cells. A fluorometric method was used determine cellular lipid accumulation. 4-mL culture samples were mixed with Nile Red (9-diethylamino-5H-benzophenoxazine-5-one) at a 100:1 volume ratio and allowed to stain for about seven minutes. Cytoplasmic lipids were then measured by the florescence intensity using a fluorometer (excitation 475 nm; emission 585 nm). The relative fluorescence for lipid content was obtained after subtraction of both the autofluorescence of algal cells and the self-fluorescence of the Nile Red dye from the uncorrected readings at 585 nm wavelengths.

[4] = system: Dunaliella tertiolecta; assay: Effect of chelated zinc on growth (cell density, haemocytometer) of Dunaliella tertiolecta; settings: cultured with 10^−6 to 10^−2 mg/ml in f/2 medium, 18 days, vs control
Method: To assess the efficacy of adding HMTBA-chelated zinc (BIOX-Z) to the growth medium on the growth of the microalgae Dunaliella tertiolecta, the following experiment was conducted. Dunaliella tertiolecta was maintained in stock cultures in 20 ml test tubes at a cell density of about 2.5-5.0×10^4 cells/ml as seed cultures and maintained on a seven-day transfer cycle. The microalgae were inoculated into 1 L Pyrex glass Erlenmeyer flasks containing 250 ml of f/2 growth medium (Guillard 1975).
BIOX-Z was dissolved in distilled water and added at six different concentrations to each algal culture for final concentrations of 0 mg/ml (control), 10^−6 mg/ml, 10^−5 mg/ml, 10^−4 mg/ml, 10^−3 mg/ml and 10^−2 mg/ml. Each of the six test groups included 3 individual flasks.
The D. tertiolecta cells were grown in the flasks at a temperature of about 20° C. for a total of 18 days. Light was supplied to the cultures on a cycle of 12 hours of light and 12 hours of dark, at an intensity of 133-299 uEin/sec/cm^2 using a fluorescent light bulb bank (2-F20T12 Westinghouse cool white, Westinghouse Electric Corp., USA). Five samples from each of the test groups were taken each day, and the cell density of each sample was determined using a haemocytometer.

[5] = system: Nitzchia sp. microalgae; assay: Effect of chelated zinc on growth (cell density) of Nitzchia sp. microalgae; settings: 10^−3 mg/ml, 18 days, vs control
Method: To assess the efficacy of HMTBA-chelated zinc (BIOX-Z) on the growth of microalgae from the genus Nitzchia, the following experiment was conducted. Microalgae from the genus Nitzchia was maintained in stock cultures as described in Example 1. The microalgae were inoculated into 1 L flasks and varying amounts of BIOX-Z were added to the flasks as described in Example 1. The Nitzchia cells were grown in the flasks as described in Example 1 for a total of 18 days. Samples were taken from the flasks each day to assess the cell density as described in Example 1.

[6] = 0.000001-0.0001 mg/mL, after thirty days of growth
[7] = 0.001 mg/mL, thirty days of growth
[8] = all concentrations, after 30 days of growth
[9] = all concentrations, through the entire period of growth

Structure (SMILES)	growth of Chlorella vulgaris (cell density) ([1]; 10^−2 mg/mL)	growth of Chlorella vulgaris (cell density) ([1]; 10^−3 mg/mL)	growth of Chlorella vulgaris (cell density) ([1]; 10^−4 mg/mL)	growth of Chlorella vulgaris (cell density) ([1]; 10^−5 mg/mL)	growth of Chlorella vulgaris (cell density) ([1]; 10^−6 mg/mL)	protein content relative to control [2, 6]	protein content relative to control [2, 7]	lipid content of Chlorella vulgaris cells [3, 8]	further results
CSCCC(O)C(=O)[O-].CSCCC(O)C(=O)[O-].[Cu+2] (stereo not shown) [BIOX-C, Cu-HMTBA]	inhibited	no effect	enhanced	enhanced	enhanced	10-12 times the control protein content	about 4.5 times the control protein content	enhanced	protein content of the microalgae cells ([2]; 0.01 mg/mL, vs control cells): inhibited; protein content relative to control ([2]; 10^−4 mg/mL, after thirty days of growth, largest enhancement of all compositions tested): about 12.8 times the control protein content; protein content of Chlorella vulgaris cells ([2]; all concentrations except 0.01 mg/mL, at twelve days of growth or longer): enhanced; enhancement of microalgal lipid content compared with all compositions tested ([3]; 10^−2 mg/mL): largest enhancement; lipid content of Chlorella vulgaris cells ([3]; 10^−2 mg/mL, after 39 days of growth): higher lipid content than the control colony; lipid content of Chlorella vulgaris cells ([3]; 10^−3 mg/mL, after 39 days of growth): higher lipid content than the control colony; lipid content of Chlorella vulgaris cells ([3]; all concentrations, after 9 days of growth): enhanced
CSCCC(O)C(=O)[O-].CSCCC(O)C(=O)[O-].[Mn+2] (stereo not shown) [BIOX-M, Mn-HMTBA]	enhanced	inhibited	enhanced	enhanced	enhanced	10-12 times the control protein content	7-8 times the control protein content	enhanced	protein content relative to control ([2]; 0.01 mg/mL, thirty days of growth): 7-8 times the control protein content; protein content of Chlorella vulgaris colonies ([2]; all concentrations, after 21 days or more of growth): enhanced; lipid content of Chlorella vulgaris colonies ([3]; 10^−5 mg/mL, after 39 days): enhanced to a lesser degree; lipid content of Chlorella vulgaris colonies ([3]; 10^−6 mg/mL, after 39 days): enhanced to a lesser degree; lipid content of Chlorella vulgaris colonies ([3]; concentrations of less than 10^−2 mg/mL, after nine days): enhanced
CSCCC(O)C(=O)[O-].CSCCC(O)C(=O)[O-].[Zn+2] (stereo not shown) [BIOX-Z, Zn-HMTBA]	no effect	enhanced	enhanced	enhanced	enhanced				protein content of Chlorella vulgaris cells, concentration of greatest enhancement ([2]; 10^−5 mg/mL): most enhanced; protein content relative to control ([2]; 10^−5 mg/mL, after 30 days of growth): over twelve times; protein content of Chlorella vulgaris cells [2, 9]: enhanced; concentration of D. tertiolecta cells [4]: enhanced; lipid content of Chlorella vulgaris cells, concentration of greatest enhancement ([3]; 10^−3 mg/mL): most enhanced; lipid content of Chlorella vulgaris cells [3, 9]: enhanced; concentration of Nitzchia cells [5]: enhanced

Reference: US20110020914A1, “METHODS FOR ENHANCING GROWTH OF ORGANISMS IN AN AQUEOUS GROWTH MEDIUM” (NOVUS INTERNATIONAL INC, priority 2009, published 2011)
